Measured values as given in PubChem BioAssay (NCI).
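The compound was tested at five concentrations on cells cultured in 96-well plates, with a 48-hour exposure period. TGI denotes the concentration required for complete inhibition of growth.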

What was measured:
Assay in all cases: NCI-60 cell line screen, 48 h
HCT-15 colon = test system: HCT-15 colon
ACHN renal = test system: ACHN renal
SF-295 CNS = test system: SF-295 CNS
SR leukemia = test system: SR leukemia
RPMI-8226 leukemia = test system: RPMI-8226 leukemia
SF-539 CNS = test system: SF-539 CNS
IGROV1 ovarian = test system: IGROV1 ovarian
LOX IMVI melanoma = test system: LOX IMVI melanoma
SNB-78 CNS = test system: SNB-78 CNS
UACC-257 melanoma = test system: UACC-257 melanoma
HOP-62 NSCLC = test system: HOP-62 NSCLC
COLO 205 colon = test system: COLO 205 colon
CCRF-CEM leukemia = test system: CCRF-CEM leukemia
NCI-H23 lung = test system: NCI-H23 lung
SN12C renal = test system: SN12C renal
DLD-1 colon = test system: DLD-1 colon
OVCAR-3 ovarian = test system: OVCAR-3 ovarian
SF-268 CNS = test system: SF-268 CNS
SNB-75 CNS = test system: SNB-75 CNS
SK-MEL-2 melanoma = test system: SK-MEL-2 melanoma
NCI-H460 lung = test system: NCI-H460 lung
RXF 393 renal = test system: RXF 393 renal
MOLT-4 leukemia = test system: MOLT-4 leukemia
M19-MEL melanoma = test system: M19-MEL melanoma
OVCAR-8 ovarian = test system: OVCAR-8 ovarian
NCI-H226 lung = test system: NCI-H226 lung
OVCAR-5 ovarian = test system: OVCAR-5 ovarian
KM20L2 colon = test system: KM20L2 colon
SW-620 colon = test system: SW-620 colon
DMS 273 small cell lung = test system: DMS 273 small cell lung
HL-60(TB) leukemia = test system: HL-60(TB) leukemia
OVCAR-4 ovarian = test system: OVCAR-4 ovarian
SK-OV-3 ovarian = test system: SK-OV-3 ovarian
UACC-62 melanoma = test system: UACC-62 melanoma
DMS 114 small cell lung = test system: DMS 114 small cell lung
786-0 renal = test system: 786-0 renal
XF 498 CNS = test system: XF 498 CNS
K-562 leukemia = test system: K-562 leukemia
LXFL 529 NSCLC = test system: LXFL 529 NSCLC
M14 melanoma = test system: M14 melanoma
CAKI-1 renal = test system: CAKI-1 renal
NCI-H522 lung = test system: NCI-H522 lung
A549 NSCLC = test system: A549 NSCLC
HT29 colon = test system: HT29 colon
U251 CNS = test system: U251 CNS
MALME-3M melanoma = test system: MALME-3M melanoma
RXF-631 renal = test system: RXF-631 renal
UO-31 renal = test system: UO-31 renal
HCC-2998 colon = test system: HCC-2998 colon
EKVX NSCLC = test system: EKVX NSCLC
HCT-116 colon = test system: HCT-116 colon
KM12 colon = test system: KM12 colon
HOP-92 NSCLC = test system: HOP-92 NSCLC
SNB-19 CNS = test system: SNB-19 CNS

Measured: TGI

Cc1cccc(C)c1CO
> 100 µM: all assays above
